Source: patent US7182965B2, “Soluble composition containing sporopollenin and the use thereof” (priority 2002, dated 2007)

System: skin
Test: Skin compatibility, 48 h occlusive patch test, modified Draize evaluation
Details: 1% in water, 48 hours under occlusion, 50 test subjects
Procedure: In this procedure, the GLP Guidelines and the recommendations of the COLIPA work group (Walker A. P. et al.: Test Guidelines for Assessment of Skin Compatibility of Cosmetic Finished Products in Man, Food and Chemical Toxicology 34, 1996, pages 651 to 660) were observed.
The model noxious substance sodium lauryl sulfate at a concentration of 1% in water served as the positive control. Water itself served as the negative control.
The evaluation of the test reaction was carried out after 48 and 72 hours in accordance with the modified Draize test.

CCCCCCCCCCCCOS(=O)(=O)[O-].[Na+] [SDS, sodium lauryl sulfate]
positive reaction, number of test subjects: 14 test subjects
